We go through 9 compounds from patent EP4635969A1, “NOVEL GLUCOCORTICOID, METHOD FOR PREPARING SAME, AND USE THEREOF” (Tianjin Pharmaceutical Biotechnology Co., Ltd., priority 2022, dated 2024).

The term EC50 denotes the concentration at which the effect is half-maximal.

The target of the assay is T1, glucocorticoid receptor (GR) (Homo sapiens, UniProt P04150).
T1 sequence (P04150 521-777): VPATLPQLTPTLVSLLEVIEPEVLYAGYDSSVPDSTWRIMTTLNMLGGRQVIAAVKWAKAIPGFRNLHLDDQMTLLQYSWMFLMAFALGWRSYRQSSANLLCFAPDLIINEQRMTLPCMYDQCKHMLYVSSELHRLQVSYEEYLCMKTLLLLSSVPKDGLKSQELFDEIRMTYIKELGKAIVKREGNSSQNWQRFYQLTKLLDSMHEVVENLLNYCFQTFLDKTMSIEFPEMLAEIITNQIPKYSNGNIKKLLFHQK
Nature of the assay: Assay for agonist activity on glucocorticoid receptor (luciferase reporter, HEK293 cells transfected with pBIND-GR plasmid). Type of assay: cell-based. The note with it: HEK293 cells transfected with pBIND-GR, luciferase signal; read-out: GR agonist EC50. As for the experimental part:
Pharmacological Example 1: Assay for Agonist Activity on Glucocorticoid Receptor (GR)
The test compounds were subjected to a 4-fold serial dilution starting from an initial concentration of 10 µ M, generating a 10-point concentration gradient with duplicate wells for each concentration. The blank control consisted of 0.1 % DMSO.
The HEK293 stable cell line […] transfected with glucocorticoid receptor (GR) (ICE Bioscience, Lot No. TYP-20220519) was cultured in Dulbecco's Modified Eagle Medium (DMEM) supplemented with 10% fetal bovine serum (FBS) and 200 µ g/ml Hygromycin B in a cell incubator containing 5% CO2 at 37 °C. The spent medium was aspirated and the cells were washed once with phosphate-buffered saline (PBS). Then, 1 mL of TrypLE™ Express solution was added, and the cells were incubated at 37 °C for approximately 2 min. When the cells detached from the bottom of the cell culture dish, approximately 5 mL of pre-warmed complete medium at 37 °C was added. The cell suspension was gently pipetted with a pipette to dissociate clumped cells. The cell suspension was transferred to a sterile centrifuge tube and centrifuged at 1000 rpm for 5 min to pellet the cells for experiments or subculture.
HEK293 cells were digested and seeded into 6-cm culture dishes. The pBIND-GR plasmid was transfected into the HEK293 cells using a transfection reagent, resulting in HEK293 cells successfully transfected with the pBIND-GR plasmid. The cells were resuspended in phenol red-free DMEM medium containing 5% charcoal-stripped serum, counted, and then seeded into 96-well plates. The test compounds were added, and the plates were then incubated in an incubator. The luminescence signal values were measured using a multimode microplate reader following the instructions of the luciferase assay kit. The EC50 values of each test compound were calculated using the nonlinear fitting formula with GraphPad Prism 8.0 software.
For orientation: A reporter such as luciferase makes a cellular process visible.
Turning to `C[C@]12C=CC(=O)C=C1CC[C@H]1[C@@H]3C[C@H]4OC(c5cnc(CSC6CCOC6=O)nc5)O[C@@]4(C(=O)CO)[C@@]3(C)C[C@H](O)[C@@]12Cl` (stereo partly drawn) [Compound 54, (6aS,6bR,7S,8aS,8bS,11aR,12aS,12bS)-6b-Chloro-7-hydroxy-8b-(2-hydroxyacetyl)-6a,8a-dimethyl-10-(2-(((2-oxotetrahydrofuran-3-yl)thio)methyl)pyrimidin-5-yl)-1,2,6a,6b,7,8,8a,8b,11a,12,12a, 12b-dodecahydro-4H-naphtho[2',1':4,5]indeno[1,2-d][1,3]dioxol-4-one], the EC50 was found to be 5.64 nM.
For `C[C@]12C=CC(=O)C=C1[C@@H](F)C[C@H]1[C@@H]3C[C@H]4OC(C5CCC(NC(=O)C6COC(=O)C6)CC5)O[C@@]4(C(=O)CO)[C@@]3(C)C[C@H](O)[C@@]12F` (stereo partly drawn) [Compound 3, N-(4-((2S,6aS,6bR,7S,8aS,8bS,11aR,12aS,12bS)-2,6b-Difluoro-7-hydroxy-8b-(2-hydroxyacetyl)-6a,8a-dimethyl-4-oxo-2,4,6a,6b,7,8,8a,8b,11a,12,12a,12b-dodecahydro-1H-naphtho[2',1':4,5]indeno[1,2-d][1,3]dioxol-10-yl)cyclohexyl)-5-oxotetrahydrofuran-3-carboxamide] the value was 17.6 nM; for `C[C@]12C=CC(=O)C=C1[C@@H](F)C[C@H]1[C@@H]3C[C@H]4OC(C5CCN(C(=O)C6COC(=O)C6)CC5)O[C@@]4(C(=O)CO)[C@@]3(C)C[C@H](O)[C@@]12F` (stereo partly drawn) [Compound 1, (2S,6aS,6bR,7S,8aS,8bS,11aR,12aS,12bS)-2,6b-Difluoro-7-hydroxy-8b-(2-hydroxyacetyl)-6a,8a-dimethyl-10-(1-(5-oxotetrahydrofuran-3-carbonyl)piperidin-4-yl)-1,2,6a,6b,7,8,8a,8b,11a,12,12a,1 2b-dodecahydro-4H-naphtho[2',1':4,5]indeno[1,2-d][1,3]dioxol-4-one], 20.3 nM; for `C[C@]12C=CC(=O)C=C1CC[C@H]1[C@@H]3C[C@H]4OC(c5ccc(C[S+]([O-])C6CCOC6=O)cc5)O[C@@]4(C(=O)CO)[C@@]3(C)C[C@H](O)[C@@]12Cl` (stereo partly drawn) [Compound 57, (6aS,6bR,7S,8aS,8bS,11aR,12aS,12bS)-6b-Chloro-7-hydroxy-8b-(2-hydroxyacetyl)-6a,8a-dimethyl-10-(4-(((2-oxotetrahydrofuran-3-yl)sulfinyl)methyl)phenyl)-1,2,6a,6b,7,8,8a,8b,11a,12,12a,12b-dodecahydro-4H-naphtho[2',1':4,5]indeno[1,2-d][1,3]dioxol-4-one], 0.86 nM.
For `C[C@]12C=CC(=O)C=C1[C@@H](F)C[C@H]1[C@@H]3C[C@H]4OC(c5ccc(NCC6CCOC6=O)cc5)O[C@@]4(C(=O)CO)[C@@]3(C)C[C@H](O)[C@@]12F` (stereo partly drawn) [Compound 15, (2S,6aS,6bR,7S,8aS,8bS,11aR,12aS,12bS)-2,6b-Difluoro-7-hydroxy-8b-(2-hydroxyacetyl)-6a,8a-dimethyl-10-(4-(((2-oxotetrahydrofuran-3-yl)methyl)amino)phenyl)-1,2,6a,6b,7,8,8a,8b,11a,12,12 a,12b-dodecahydro-4H-naphtho[2',1':4,5]indeno[1,2-d][1,3]dioxol-4-one] the value was 6.12 nM.
The result for `C[C@]12C=CC(=O)C=C1CC[C@H]1[C@@H]3C[C@H]4OC(c5ccc(CSC6COC(=O)C6)cc5)O[C@@]4(C(=O)CCl)[C@@]3(C)C[C@H](O)[C@@]12Cl` (stereo partly drawn) [Compound 39, (6aS,6bR,7S,8aS,8bS,11aR,12aS,12bS)-6b-Chloro-8b-(2-chloroacetyl)-7-hydroxy-6a,8a-dimethyl-10-(4-(((5-oxotetrahydrofuran-3-yl)thio)methyl)phenyl)-l,2,6a,6b,7,8,8a,8b,11a,12,12a,12b-dode cahydro-4H-naphtho[2',1':4,5]indeno[1,2-d][1,3]dioxol-4-one] reads 3.31 nM.
On to `C[C@]12C=CC(=O)C=C1CC[C@H]1[C@@H]3C[C@H]4OC(C5CCN(CC6CCOC6=O)CC5)O[C@@]4(C(=O)CO)[C@@]3(C)C[C@H](O)[C@@]12F` (stereo partly drawn) [Compound 44, (6aS,6bR,7S,8aS,8bS,11aR,12aS,12bS)-6b-Fluoro-7-hydroxy-8b-(2-hydroxyacetyl)-6a,8a-dimethyl-10-(1-((2-oxotetrahydrofuran-3-yl)methyl)piperidin-4-yl)-1,2,6a,6b,7,8,8a,8b,11a,12,12a,12b-d odecahydro-4H-naphtho[2',1':4,5]indeno[1,2-d][1,3]dioxol-4-one], for which the EC50 came out at 15.1 nM.
Turning to `C[C@]12C=CC(=O)C=C1CC[C@@H]1[C@@H]2[C@@H](O)C[C@@]2(C)[C@H]1C[C@H]1OC(c3ccc(CNC4CCOC4=O)cc3)O[C@]12C(=O)CO` (stereo partly drawn) [Compound 30, (6aR,6bS, 7S,8aS,8bS,11aR,12aS,12bS)-7-Hydroxy-8b-(2-hydroxyacetyl)-6a,8a-dimethyl-10-(4-(( (2-oxotetrahydrofuran-3-yl)amino)methyl)phenyl)-1,2,6a,6b,7,8,8a,8b,11a,12,12a,12b-dodecahydr o-4H-naphtho[2',1':4,5]indeno[1,2-d][1,3]dioxol-4-one], the EC50 stood at 7.2 nM.
The result for `C[C@]12C=CC(=O)C=C1CC[C@@H]1[C@@H]2[C@@H](O)C[C@@]2(C)[C@H]1C[C@H]1OC(c3ccc(COC4CCOC4=O)cc3)O[C@]12C(=O)CO` (stereo partly drawn) [Compound 28, (6aR,6bS, 7S,8aS,8bS,11aR,12aS,12bS)-7-Hydroxy-8b-(2-hydroxyacetyl)-6a,8a-dimethyl-10-(4-(( (2-oxotetrahydrofuran-3-yl)oxy)methyl)phenyl)-1,2,6a,6b,7,8,8a,8b,11a,12,12a,12b-dodecahydro-4H-naphtho[2',1':4,5]indeno[1,2-d][1,3]dioxol-4-one] reads 4.24 nM.
